Experimental findings from US5079157A, “Novel choline oxidase and method for producing the same” (priority 1988, dated 1992) are described below.

The subject of test [1] is choline oxidase. It is filed as biochemical. Here is the method:
(§1) Enzymatic activity (U/ml)=ΔA/min.×10.17×dilution ratio
Various substances were added to the reaction mixture to be used for the determination of enzymatic activity as described in the above (2) and the inhibitory effects were examined.

Test [2] relates to choline oxidase. The test can be described thus: Substrate specificity of choline oxidase (authentic sample of Example 1). The note with it: substrate used in place of choline chloride; relative to choline; enzyme of Example 1; Tris-HCl pH 8.0, 37° C. The format is biochemical, Streptomyces thermoluteus subsp. fuscus C-19. Here is the method:
as §1
According to the above determination method of enzymatic activity, various substrates shown in Table 2 were used in place of choline chloride in the reaction mixture, their relative activities to choline were determined. As the enzyme, the authentic sample obtained in Example 1 hereinafter was employed.

Test [3] concerns choline oxidase (authentic sample T). To be noted: authentic sample T (Example 10).
Experimental: (§2) A peroxidase (obtained from horse radish, 100 units/mg, Type I, Sigma Chemical Co., U.S.A.) is dissolved in the above mixture to obtain a reaction mixture. The reaction mixture (3.0 ml) is placed in a cuvette (d=1.0 cm) and subjected to pre-heating at 37° C. for 5 minutes. Then, the changes of absorbance at 500 nm at 37° C. are recorded by an autographic recording spectrophotometer (UV-260 Type, Shimadzu Seisakusho, Ltd.) and the changes of absorbance per minute (ΔA/min.) from the initial straight line portion are determined. The enzymatic activity is calculated by the following formula:
Test [4] concerns the target T1, choline oxidase (authentic sample S) (Saccharopolyspora hirsuta, UniProt A0A5M7BLR6).
T1 sequence (A0A5M7BLR6 1-515): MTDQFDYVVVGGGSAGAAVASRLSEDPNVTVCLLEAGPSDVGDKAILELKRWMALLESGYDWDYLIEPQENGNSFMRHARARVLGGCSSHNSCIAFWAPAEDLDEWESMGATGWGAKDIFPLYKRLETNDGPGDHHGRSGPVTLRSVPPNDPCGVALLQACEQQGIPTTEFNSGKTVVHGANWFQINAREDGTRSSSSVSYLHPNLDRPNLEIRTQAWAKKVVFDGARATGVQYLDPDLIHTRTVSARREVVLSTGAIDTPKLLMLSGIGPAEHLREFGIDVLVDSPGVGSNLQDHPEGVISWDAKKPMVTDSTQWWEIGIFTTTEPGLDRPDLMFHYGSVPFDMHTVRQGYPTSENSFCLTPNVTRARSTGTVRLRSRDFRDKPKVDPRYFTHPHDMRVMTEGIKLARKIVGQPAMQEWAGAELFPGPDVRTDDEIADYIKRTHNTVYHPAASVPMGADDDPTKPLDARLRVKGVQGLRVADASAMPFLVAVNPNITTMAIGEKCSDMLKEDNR
The note with it: authentic sample S (Example 11).
Experimental: as §2

The mark [5] stands for this setting: additive 5 mM, without addition = 100.
[6] abbreviates: additive 1.0 mM, without addition = 100.

Like-named read-outs stand apart in the source and are kept apart here.

With `[Cl-].[Na+]` [NaCl], in the test on choline oxidase [1], the “Relative Activity (%)” value is given as 100%.
Consider `[Cl][Mn][Cl]` [MnCl2], for which the “Relative Activity (%)” value with choline oxidase [1] (setting [5]) is listed as 100%.
Turning to `CNCCO` [N-methylaminoethanol], in the test on choline oxidase [2], the “Relative Activity (%)” value is recorded as 0%.
On to `[Cl-].[Li+]` [LiCl], for which, in the test on choline oxidase [1] (setting [5]), the “Relative Activity (%)” value turned out to be 100%.
Take `OCCNCCO` [Diethanolamine]: the “Relative Activity (%)” value in the test on choline oxidase [2] is 0%.
As for `[Cl-].[K+]` [KCl], in the test with choline oxidase [1] (setting [5]), the “Relative Activity (%)” value is recorded as 98.0%.
`[Cl][Mo]([Cl])([Cl])([Cl])[Cl]` [MoCl5]: in the test with choline oxidase [1] (setting [6]), the “Relative Activity (%)” value was 18.1%.
`C[N+](C)(C)CC=O` [Betaine aldehyde]: the “reactivity of the enzyme to the substrate” value in test [3] and in test [4] was “showed reactivity” in each case. Also, in the test with choline oxidase [2], the “Relative Activity (%)” value is on record as 41.9%.
Consider `Cl.N` [NH4 Cl], for which, in the test on choline oxidase [1] (setting [5]), the “Relative Activity (%)” value was found to be 100%.
Consider `[Ca+2].[Cl-].[Cl-]` [CaCl2], for which, in the test on choline oxidase [1] (setting [5]), the “Relative Activity (%)” value was 100%.
Still for that read-out and setting: the figure for `[Ba+2].[Cl-].[Cl-]` [BaCl2] is 100%.
Turning to `[Cl-].[Cl-].[Mg+2]` [MgCl2], in the test with choline oxidase [1] (setting [5]), the “Relative Activity (%)” value is reported as 93.8%.
Consider `NCCO` [Monoethanolamine], for which the “Relative Activity (%)” value in the test on choline oxidase [2] is 0%.
Take `[Cl][Hg][Cl]` [HgCl2]: the “Relative Activity (%)” value in the test with choline oxidase [1] (additive 0.05 mM, without addition = 100) is 83.3%; in the test on choline oxidase [1] (additive 0.5 mM, without addition = 100) it was 60.1%; in the test with choline oxidase [1] (setting [6]), 50.0%.
As to `[Cl-].[Cl-].[Co+2]` [CoCl2], the “Relative Activity (%)” value in the test with choline oxidase [1] (setting [5]) stood at 36.9%.
Still for that read-out and setting: as for `[Cl-].[Cl-].[Zn+2]` [ZnCl2], the figure is 82.9%.
